In PubChem BioAssay (NCI):
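Protocol summary: plate cells (96-well), add compound at 5 concentrations, incubate 48 h, interpolate endpoints linearly. At the GI50, growth is halved. TGI is the concentration that stops growth completely.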

Key:
Test in all cases: inhibition of tumour cell growth, NCI panel, 48 h
SF-295 CNS = test system: SF-295 CNS
OVCAR-3 ovarian = test system: OVCAR-3 ovarian
DU-145 prostate = test system: DU-145 prostate
SK-MEL-5 melanoma = test system: SK-MEL-5 melanoma
NCI-H522 lung = test system: NCI-H522 lung
HOP-62 NSCLC = test system: HOP-62 NSCLC
NCI-H460 lung = test system: NCI-H460 lung
M14 melanoma = test system: M14 melanoma
A498 renal = test system: A498 renal
UACC-62 melanoma = test system: UACC-62 melanoma
SK-OV-3 ovarian = test system: SK-OV-3 ovarian
CAKI-1 renal = test system: CAKI-1 renal
NCI-H226 lung = test system: NCI-H226 lung
OVCAR-5 ovarian = test system: OVCAR-5 ovarian
HS 578T breast = test system: HS 578T breast
SNB-19 CNS = test system: SNB-19 CNS
SF-268 CNS = test system: SF-268 CNS
A549 NSCLC = test system: A549 NSCLC
SN12C renal = test system: SN12C renal
BT-549 breast = test system: BT-549 breast
U251 CNS = test system: U251 CNS
COLO 205 colon = test system: COLO 205 colon
SNB-75 CNS = test system: SNB-75 CNS
T-47D breast = test system: T-47D breast
MDA-MB-435 = test system: MDA-MB-435
786-0 renal = test system: 786-0 renal
NCI-H23 lung = test system: NCI-H23 lung
HCC-2998 colon = test system: HCC-2998 colon
KM12 colon = test system: KM12 colon
SR leukemia = test system: SR leukemia
HL-60(TB) leukemia = test system: HL-60(TB) leukemia
HOP-92 NSCLC = test system: HOP-92 NSCLC
IGROV1 ovarian = test system: IGROV1 ovarian
UO-31 renal = test system: UO-31 renal
CCRF-CEM leukemia = test system: CCRF-CEM leukemia
HCT-15 colon = test system: HCT-15 colon
PC-3 prostate = test system: PC-3 prostate
MOLT-4 leukemia = test system: MOLT-4 leukemia
K-562 leukemia = test system: K-562 leukemia
MCF7 breast = test system: MCF7 breast
HCT-116 colon = test system: HCT-116 colon
NCI/ADR-RES ovarian = test system: NCI/ADR-RES ovarian
SW-620 colon = test system: SW-620 colon
OVCAR-8 ovarian = test system: OVCAR-8 ovarian
RPMI-8226 leukemia = test system: RPMI-8226 leukemia
UACC-257 melanoma = test system: UACC-257 melanoma
EKVX NSCLC = test system: EKVX NSCLC
OVCAR-4 ovarian = test system: OVCAR-4 ovarian
MALME-3M melanoma = test system: MALME-3M melanoma
ACHN renal = test system: ACHN renal
SF-539 CNS = test system: SF-539 CNS
SK-MEL-28 melanoma = test system: SK-MEL-28 melanoma
SK-MEL-2 melanoma = test system: SK-MEL-2 melanoma
MDA-MB-231 breast = test system: MDA-MB-231 breast
RXF 393 renal = test system: RXF 393 renal
TK-10 renal = test system: TK-10 renal
HT29 colon = test system: HT29 colon
LOX IMVI melanoma = test system: LOX IMVI melanoma

O=[N+]([O-])c1ccc(N(CCO)CCO)c2c1no[n+]2[O-]
GI50 (SF-295 CNS): 0.803 µM | TGI (SF-295 CNS): 3.38 µM | GI50 (OVCAR-3 ovarian): 1.51 µM | TGI (OVCAR-3 ovarian): 3.91 µM | GI50 (DU-145 prostate): 1.68 µM | TGI (DU-145 prostate): 5.64 µM | GI50 (SK-MEL-5 melanoma): 1.09 µM | TGI (SK-MEL-5 melanoma): 2.31 µM | GI50 (NCI-H522 lung): 0.926 µM | TGI (NCI-H522 lung): 3.38 µM | GI50 (HOP-62 NSCLC): 1.39 µM | TGI (HOP-62 NSCLC): 4.16 µM | GI50 (NCI-H460 lung): 0.645 µM | TGI (NCI-H460 lung): 2.72 µM | GI50 (M14 melanoma): 1.22 µM | TGI (M14 melanoma): 2.76 µM | GI50 (A498 renal): 1.58 µM | TGI (A498 renal): 3.68 µM | GI50 (UACC-62 melanoma): 1.24 µM | TGI (UACC-62 melanoma): 3.56 µM | GI50 (SK-OV-3 ovarian): 1.21 µM | TGI (SK-OV-3 ovarian): 4.14 µM | GI50 (CAKI-1 renal): 0.471 µM | TGI (CAKI-1 renal): 2.36 µM | GI50 (NCI-H226 lung): 2.01 µM | TGI (NCI-H226 lung): 6.59 µM | GI50 (OVCAR-5 ovarian): 2.78 µM | TGI (OVCAR-5 ovarian): 10.3 µM | GI50 (HS 578T breast): 0.705 µM | TGI (HS 578T breast): 4.29 µM | GI50 (SNB-19 CNS): 1.76 µM | TGI (SNB-19 CNS): 5.9 µM | GI50 (SF-268 CNS): 1.24 µM | TGI (SF-268 CNS): 5.02 µM | GI50 (A549 NSCLC): 1.83 µM | TGI (A549 NSCLC): 8.92 µM | GI50 (SN12C renal): 1.61 µM | TGI (SN12C renal): 9.28 µM | GI50 (BT-549 breast): 1.18 µM | TGI (BT-549 breast): 4 µM | GI50 (U251 CNS): 0.655 µM | TGI (U251 CNS): 2.37 µM | GI50 (COLO 205 colon): 0.852 µM | TGI (COLO 205 colon): 2.22 µM | GI50 (SNB-75 CNS): 0.961 µM | TGI (SNB-75 CNS): 5.47 µM | GI50 (T-47D breast): 1.36 µM | TGI (T-47D breast): 5.46 µM | GI50 (MDA-MB-435): 1.51 µM | TGI (MDA-MB-435): 4.87 µM | GI50 (786-0 renal): 1.8 µM | TGI (786-0 renal): 4.21 µM | GI50 (NCI-H23 lung): 1.23 µM | TGI (NCI-H23 lung): 4.2 µM | GI50 (HCC-2998 colon): 1.26 µM | TGI (HCC-2998 colon): 3.46 µM | GI50 (KM12 colon): 1.16 µM | TGI (KM12 colon): 2.53 µM | GI50 (SR leukemia): 0.215 µM | TGI (SR leukemia): 0.899 µM | GI50 (HL-60(TB) leukemia): 0.759 µM | TGI (HL-60(TB) leukemia): 3.57 µM | GI50 (HOP-92 NSCLC): 1.22 µM | TGI (HOP-92 NSCLC): 5.82 µM | GI50 (IGROV1 ovarian): 1.75 µM | TGI (IGROV1 ovarian): 7.42 µM | GI50 (UO-31 renal): 2.01 µM | TGI (UO-31 renal): 8.65 µM | GI50 (CCRF-CEM leukemia): 0.704 µM | TGI (CCRF-CEM leukemia): 4.71 µM | GI50 (HCT-15 colon): 1.56 µM | TGI (HCT-15 colon): 7.06 µM | GI50 (PC-3 prostate): 1.57 µM | TGI (PC-3 prostate): 15.9 µM | GI50 (MOLT-4 leukemia): 1.27 µM | TGI (MOLT-4 leukemia): 5.18 µM | GI50 (K-562 leukemia): 1.58 µM | TGI (K-562 leukemia): 4.65 µM | GI50 (MCF7 breast): 1.21 µM | TGI (MCF7 breast): 10.2 µM | GI50 (HCT-116 colon): 1.1 µM | TGI (HCT-116 colon): 3.03 µM | GI50 (NCI/ADR-RES ovarian): 1.44 µM | TGI (NCI/ADR-RES ovarian): 6.41 µM | GI50 (SW-620 colon): 1.32 µM | TGI (SW-620 colon): 3.71 µM | GI50 (OVCAR-8 ovarian): 1.37 µM | TGI (OVCAR-8 ovarian): 7.02 µM | GI50 (RPMI-8226 leukemia): 1.22 µM | TGI (RPMI-8226 leukemia): 4.08 µM | GI50 (UACC-257 melanoma): 1.89 µM | TGI (UACC-257 melanoma): 6.54 µM | GI50 (EKVX NSCLC): 1.8 µM | TGI (EKVX NSCLC): 6.66 µM | GI50 (OVCAR-4 ovarian): 1.65 µM | TGI (OVCAR-4 ovarian): 6.62 µM | GI50 (MALME-3M melanoma): 1.57 µM | TGI (MALME-3M melanoma): 4.64 µM | GI50 (ACHN renal): 0.768 µM | TGI (ACHN renal): 5.12 µM | GI50 (SF-539 CNS): 1.26 µM | TGI (SF-539 CNS): 2.77 µM | GI50 (SK-MEL-28 melanoma): 1.98 µM | TGI (SK-MEL-28 melanoma): 5.66 µM | GI50 (SK-MEL-2 melanoma): 1.8 µM | TGI (SK-MEL-2 melanoma): 4.78 µM | GI50 (MDA-MB-231 breast): 2.29 µM | TGI (MDA-MB-231 breast): 14.3 µM | GI50 (RXF 393 renal): 1.32 µM | TGI (RXF 393 renal): 4.84 µM | GI50 (TK-10 renal): 2.2 µM | TGI (TK-10 renal): 8.22 µM | GI50 (HT29 colon): 1.84 µM | TGI (HT29 colon): 10.7 µM | GI50 (LOX IMVI melanoma): 1.03 µM | TGI (LOX IMVI melanoma): 2.43 µM
